Test results from article PMC6270246, “Anthraquinones of the Roots of Pentas micrantha” (Molecules, 2012).
Read-outs that look alike come from different tables or passages of the source.

What was measured:
[1] = Cytotoxicity assay (PrestoBlue cell viability, 48 h); format: cell-based; details: human, MCF-7 breast cancer cells, MCF-7 cells, mean of at least six independent experiments, read-out: CC50 (cytotoxic concentration)
Experimental: MCF-7 human breast cancer cells were cultured in Dulbecco’s modified eagle medium (DMEM) supplemented with 10% (v/v) fetal bovine serum, 2 mM L-glutamine, 100 units/mL penicillin and 100 µg/mL streptomycin at 37 °C in humidified 5% CO2. For cytotoxicity assays, cells were seeded in 96-well plates at optimal cell density to ensure exponential growth for the duration of the assay. After a 24-h preincubation growth, the medium was replaced with experimental medium containing the appropriate drug concentrations or vehicle controls (0.1% or 1.0% v/v DMSO). After 48 h incubation, cell viability was measured using PrestoBlue™ Cell Viability Reagent (Invitrogen Ab, Lidingö, Sweden) according to the manufacturer’s instructions. […] Results were expressed as the mean ± standard error for six replicates as a percentage of vehicle control (taken as 100%). Experiments were performed independently at least six times. Statistical analyses were performed using a two-tailed Student’s t-test. p < 0.05 was considered to be statistically significant.

[2] = tested on: Sierra Leone D6 chloroquine-sensitive Plasmodium falciparum strain; set-up: method as in PMID 21979929; details: P. falciparum D6 strain; in vitro; bioactivity previously published; cited from earlier work
[3] = tested on: Indochina W2 chloroquine-resistant Plasmodium falciparum strain; set-up: method as in PMID 21979929; details: P. falciparum W2 strain; in vitro; bioactivity previously published; cited from earlier work
[4] = tested on: MCF-7 human breast cancer cells; set-up: method as in PMID 21979929; details: MCF-7 cells; bioactivity previously published; read-out: CC50 (cytotoxic concentration); cited from earlier work
[5] = tested on: Indochina W2 chloroquine-resistant Plasmodium falciparum strain; experiment: Malaria SYBR Green I-based in vitro drug susceptibility assay, W2 strain; format: cell-based
Experimental: (§1) For cytotoxicity (CC50) assay 1-isopropyl-3-(pyridin-4-ylethynyl)-1H-pyrazolo[3,4-d]pyrimidin-4-amine was used as reference substance.
(§2) Sierra Leone D6 chloroquine-sensitive and the Indochina W2 chloroquine-resistant Plasmodium falciparum strains (donated by the Walter Reed Army Institute for Research [WRAIR], 503 Robert Grant Avenue, Silver Spring, MD 20910, USA) were maintained in continuous culture to attain replication robustness prior to assays. Drug susceptibility was tested by the Malaria SYBR Green I-based in vitro assay technique.

[6] = tested on: Sierra Leone D6 chloroquine-sensitive Plasmodium falciparum strain; experiment: Malaria SYBR Green I-based in vitro drug susceptibility assay, D6 strain; format: cell-based
Experimental: as §1, §2

CC(C)n1nc(C#Cc2ccncc2)c2c(N)ncnc21 [1-isopropyl-3-(pyridin-4-ylethynyl)-1H-pyrazolo[3,4-d]pyrimidin-4-amine, reference compound]
CC50 at 48 h [1]: 5 µM

Cc1ccc2c(c1)C(=O)c1ccccc1C2=O [Compound 1, tectoquinone]
IC50 [2]: 30.36 ± 0.01 µM
IC50 [3]: 48.56 ± 0.01 µM
CC50 [4]: > 100 µM

COCc1c(O)cc2c(c1O)C(=O)c1ccccc1C2=O [Compound 2, lucidin-ω-methyl ether]
IC50 [2]: 42.54 ± 0.01 µM
IC50 [3]: 46.44 ± 0.01 µM
CC50 [4]: > 352 µM

COc1c(CO)c(O)cc2c1C(=O)c1ccccc1C2=O [Compound 3, damnacanthol]
IC50 [2]: 56.6 µM
IC50 [3]: 110.6 ± 0.01 µM
CC50 [4]: 238 µM

COc1c(C)c(O)cc2c1C(=O)c1ccccc1C2=O [Compound 4, rubiadin-1-methyl ether]
IC50 [2]: 45.07 ± 0.01 µM
IC50 [3]: 70.6 µM
CC50 [4]: 208 µM

Cc1c(O)cc2c(c1O)C(=O)c1ccccc1C2=O [Compound 5, rubiadin]
IC50 [2]: 21.5 µM
IC50 [3]: 31.91 ± 0.01 µM
CC50 [4]: 310 µM

COCc1c(O)cc2c(c1O)C(=O)c1ccc(O)c(O)c1C2=O [Compound 6, 1,3,5,6-tetrahydroxy-2-(methoxymethyl)-9,10-anthraquinone]
IC50 ([5]; P. falciparum W2 strain, in vitro, mean of at least 3 independent experiments, read-out: IC50 W2): 35.41 ± 0.01 µM
CC50 at 48 h [1]: 258 µM
IC50 ([6]; P. falciparum D6 strain, in vitro, mean of at least 3 independent experiments, read-out: IC50 D6): 31.84 ± 0.01 µM

COc1c(C=O)c(O)cc2c1C(=O)c1ccccc1C2=O [Compound 7, damnacanthal]
IC50 [2]: 27.2 µM
IC50 [3]: 38.6 µM
CC50 [4]: 316 µM

COc1c(CO)c(O)cc2c1C(=O)c1ccc(O)c(O)c1C2=O [Compound 8, 5,6-dihydroxydamnacanthol]
IC50 [2]: 47.53 ± 0.01 µM
IC50 [3]: 61.17 ± 0.02 µM
CC50 [4]: > 450 µM

CCN(CC)CCCC(C)Nc1ccnc2cc(Cl)ccc12 (centres unmarked) [chloroquine]
IC50 ([5]; W2, read-out: IC50 (W2)): 0.522 µM
IC50 ([6]; D6, read-out: IC50 (D6)): 0.0147 µM

OC(c1cc(C(F)(F)F)nc2c(C(F)(F)F)cccc12)C1CCCCN1 (centres unmarked) [mefloquine]
IC50 ([5]; P. falciparum W2 strain, positive controls, read-out: IC50 (W2)): 0.00665 µM
IC50 ([6]; P. falciparum D6 strain, positive controls, read-out: IC50 (D6)): 0.0876 µM
